Series [1] can be described thus: solubility in water. Type of series: physicochemical. Particulars: in comparison with the free base.
Series [2] can be described thus: bio-availability. Conditions: in vivo.

Structures can show the parent of a compound that is named as a salt.

On to `CC1Oc2c(cccc2N2CCN(CCCc3c[nH]c4ccc(F)cc34)CC2)NC1=O` (centres unmarked) [mesylate, 8-{4-[3-(5-fluoro-1H-indol-3-yl)-propyl]-piperazin-1-yl}-2-methyl-4H-benzo[1,4]oxazin-3-one mesylate], for which the solubility in water result in series [1] is listed as “much better soluable in water than the free base”. Besides, the bio-availability entry in series [2] was “good”.

Values taken from patent US8106044B2, “8-{4-[3-(5-fluoro-1H-indol-3-yl)-propyl]-piperazin-1-yl}-2-methyl-4H-benzo[1,4]oxazin-3-one mesylate with high affinity for the dopamine D2 receptor and the serotonin reuptake site” (Solvay Pharmaceuticals B.V., priority 2001, dated 2012).
